Reference: patent US12625427B2, “Naphthalimide sulfonate derivative, and photoacid generator and photoresist composition each comprising same” (SAMYANG CORPORATION, priority 2020, dated 2026)

Experiments:
[1] = Measurement of solubility of photoacid generators in photoresist solvents; assay type: physicochemical; details: for Solubility (w/v %) PGMEA: solvent PGMEA; for Solubility (w/v %) Cyclohexane: solvent cyclohexane
From the text: In preparing a photoresist composition, solubility of a photoacid generator is very important.

[2] = Measurement of thermal stability by thermogravimetric analyzer; assay type: physicochemical
From the text: If a photoacid generator is thermally stable in a photoresist preparation process, a very good effect in terms of stability can be expected.

| SMILES | Solubility (w/v %) PGMEA [1] [w/v %] | Solubility (w/v %) Cyclohexane [1] [w/v %] | Temperature at which 5% weight loss occurred [2] [°C] |
| --- | --- | --- | --- |
| CCCCOC(CCC)c1ccc2c3c(cccc13)C(=O)N(OS(=O)(=O)C(F)(F)F)C2=O (stereo not shown) [Compound 8] | 50.0 | 62.3 | 232 |
| CCCC(OCCOC)c1ccc2c3c(cccc13)C(=O)N(OS(=O)(=O)C(F)(F)F)C2=O (stereo not shown) [Compound 19] | 60.0 | 64.1 | 234 |
| CCCCOCCOC(CCC)c1ccc2c3c(cccc13)C(=O)N(OS(=O)(=O)C(F)(F)F)C2=O (stereo not shown) [Compound 20] | 45.0 | 54.1 | 235 |

Next, values leading:

| Solubility (w/v %) PGMEA [1] [w/v %] | Solubility (w/v %) Cyclohexane [1] [w/v %] | Temperature at which 5% weight loss occurred [2] [°C] | SMILES |
| --- | --- | --- | --- |
|  |  | 230 | CCCC(OC)c1ccc2c3c(cccc13)C(=O)N(OS(=O)(=O)C(F)(F)F)C2=O (stereo not shown) [Compound 11] |
| 1.7 | 5.8 | 223 | O=C1c2cccc3cccc(c23)C(=O)N1OS(=O)(=O)C(F)(F)F [Formula II, reference compound] |
